Measurements taken from patent US11001590B2, “Pyrazolopyrimidine derivatives” (BAYER ANIMAL HEALTH GMBH, priority 2016, dated 2021).

Tests used:
[1] = log P by HPLC on reversed phase columns (Method L0; [a] acidic, [b] neutral range); settings: for log P: HPLC on reversed phase columns (Method L0); for logP (Method L0) [a]: HPLC on reversed phase columns, Method L0, [a] acidic range
Description: Calibration was done with straight-chain alkan-2-ones (with 3 to 16 carbon atoms) with known log P values (measurement of log P values using retention times with linear interpolation between successive alkanones). Lambda-max-values were determined using UV-spectra from 200 nm to 400 nm and the peak values of the chromatographic signals.

C. elegans Slo-1a = C. elegans Slo-1a (Caenorhabditis elegans, UniProt Q95V25); experiment: In vitro assay 1: C. elegans Slo-1a, action at a recombinant C. elegans CHO cell line (membrane potential measurement); settings: for pE50: CHO cells expressing C. elegans Slo-1a, voltage sensitive dye, FLIPR Tetra, negative decadic logarithm of EC50
C. elegans Slo-1a, sequence (Q95V25 whole entry): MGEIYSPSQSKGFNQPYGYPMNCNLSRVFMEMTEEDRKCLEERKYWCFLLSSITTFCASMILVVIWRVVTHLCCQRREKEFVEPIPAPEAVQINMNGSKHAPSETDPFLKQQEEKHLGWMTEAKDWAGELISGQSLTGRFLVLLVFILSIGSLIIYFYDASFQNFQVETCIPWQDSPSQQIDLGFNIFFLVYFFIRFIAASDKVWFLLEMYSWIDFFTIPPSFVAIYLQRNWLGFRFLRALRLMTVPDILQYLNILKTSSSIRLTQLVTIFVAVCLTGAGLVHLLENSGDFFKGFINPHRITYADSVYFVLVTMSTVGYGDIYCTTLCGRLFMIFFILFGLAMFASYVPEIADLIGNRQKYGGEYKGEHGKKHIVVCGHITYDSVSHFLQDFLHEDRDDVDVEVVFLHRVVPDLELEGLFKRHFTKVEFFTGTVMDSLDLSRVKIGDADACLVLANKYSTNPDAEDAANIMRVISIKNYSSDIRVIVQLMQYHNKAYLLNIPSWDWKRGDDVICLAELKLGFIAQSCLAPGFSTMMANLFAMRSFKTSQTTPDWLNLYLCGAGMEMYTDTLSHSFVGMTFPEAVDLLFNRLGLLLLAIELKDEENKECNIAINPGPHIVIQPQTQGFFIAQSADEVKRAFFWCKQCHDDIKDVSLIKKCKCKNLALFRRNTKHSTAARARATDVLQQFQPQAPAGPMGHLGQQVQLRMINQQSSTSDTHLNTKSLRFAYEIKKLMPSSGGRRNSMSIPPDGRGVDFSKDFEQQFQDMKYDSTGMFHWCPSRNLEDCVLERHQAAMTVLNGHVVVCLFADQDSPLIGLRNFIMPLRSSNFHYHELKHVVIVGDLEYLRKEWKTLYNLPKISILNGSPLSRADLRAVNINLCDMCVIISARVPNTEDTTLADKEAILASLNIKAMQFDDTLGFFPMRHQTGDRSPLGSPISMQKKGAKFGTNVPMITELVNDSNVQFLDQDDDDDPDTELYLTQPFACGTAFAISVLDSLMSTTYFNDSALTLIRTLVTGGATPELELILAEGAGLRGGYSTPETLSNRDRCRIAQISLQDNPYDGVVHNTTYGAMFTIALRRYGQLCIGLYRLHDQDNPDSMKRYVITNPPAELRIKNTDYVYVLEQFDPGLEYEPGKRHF

[2] = last column of Table 1, column head not shown

For `Cc1nn2c(N(C)CC[S+](C)[O-])c(C(=O)NC3CCOc4ccccc43)cnc2c1-c1cc(Cl)cc(Cl)c1` (mixture of isomers) [Example 540], the “log P” value [1, 2] was 2.88 and the pE50 (C. elegans Slo-1a) was 7.7.

For `Cc1ccc2c(c1)C(NC(=O)c1cnc3c(-c4c(F)cccc4Cl)c(C)nn3c1C(C)C)CCO2` (racemic) [Example 237], the “log P” value [1] was 4.67 and the pE50 (C. elegans Slo-1a) was 7.5.

With `Cc1nn2c(C(C)C)c(C(=O)NC3CCOc4ccc(F)cc43)cnc2c1-c1c(F)cccc1Cl` (racemic) [Example 254] the “log P” value [1] was 4.45 and the pE50 (C. elegans Slo-1a) was 8.1.

In the case of `Cc1nn2c(C(C)C)c(C(=O)NC3CCc4ccccc43)cnc2c1-c1cccc(C(F)(F)F)c1` (stereo not shown) [Example 1], the chromatographic logP [1] is reported as 5.29 and the EC50 (C. elegans Slo-1a) is reported as 39.8 nM.

`Cc1nn2c(C(C)C)c(C(=O)NC3CCCc4ccccc43)cnc2c1-c1cccc(C(F)(F)F)c1` (stereo not shown) [Example 2] gave a chromatographic logP [1] of 5.59 and an EC50 (C. elegans Slo-1a) of 31.6 nM.

With `Cc1ccc2c(c1)[C@@H](NC(=O)c1cnc3c(-c4cccc(C(F)(F)F)c4)c(C)nn3c1C(C)C)CCC2` [Example 5] the “logP (Method L0) [a]” value [1] was 5.99 and the pE50 (C. elegans Slo-1a) was 7.2.

Work on `Cc1nn2c(C(C)C)c(C(=O)N[C@H]3CCCc4ccccc43)cnc2c1-c1cc(Cl)cc(Cl)c1` [Example 7] yielded a chromatographic logP [1] of 6.39 and an EC50 (C. elegans Slo-1a) of 20 nM.

Compound `Cc1nn2c(C)c(C(=O)N[C@H]3CCCc4ccccc43)cnc2c1-c1cccc(Cl)c1` [Example 46] has a chromatographic logP [1] of 4.42 and an EC50 (C. elegans Slo-1a) of 251 nM.

`CC(C)c1c(C(=O)N[C@H]2CCc3ccccc32)cnc2c(-c3cccc(Cl)c3)c(C(F)(F)F)nn12` [Example 48] gave a chromatographic logP [1] of 5.46 and an EC50 (C. elegans Slo-1a) of 251 nM.

In the case of `CC(C)c1c(C(=O)N[C@H]2CCCc3ccccc32)cnc2c(-c3cccc(C(F)(F)F)c3)c(C(F)(F)F)nn12` [Example 56], the chromatographic logP [1] is reported as 5.8 and the EC50 (C. elegans Slo-1a) is reported as 398 nM.

`Cc1nn2c(C)c(C(=O)N[C@H]3CCc4ccccc43)cnc2c1-c1cccc(Cl)c1` [Example 59] gave a chromatographic logP [1] of 4.12 and an EC50 (C. elegans Slo-1a) of 79.4 nM.

With `Cc1nn2c(C)c(C(=O)N[C@H]3CCc4ccccc43)cnc2c1-c1cc(Cl)cc(Cl)c1` [Example 60] the chromatographic logP [1] was 4.96 and the EC50 (C. elegans Slo-1a) was 7940 nM.

`Cc1nn2c(C)c(C(=O)N[C@H]3CCCc4ccccc43)cnc2c1-c1cc(Cl)cc(Cl)c1` [Example 61] gave a chromatographic logP [1] of 5.29 and an EC50 (C. elegans Slo-1a) of 6310 nM.

`Cc1nn2cc(C(=O)N[C@H]3CCc4ccccc43)cnc2c1-c1ccccc1Cl` [Example 62] showed a chromatographic logP [1] of 3.52 and an EC50 (C. elegans Slo-1a) of 2000 nM.

`CC(C)c1c(C(=O)N[C@H]2CCc3ccccc32)cnc2c(-c3cccc(C(F)(F)F)c3)c(Cl)nn12` [Example 70] showed a chromatographic logP [1] of 5.55 and an EC50 (C. elegans Slo-1a) of 31.6 nM.

`CC(C)c1c(C(=O)N[C@H]2CCCc3ccccc32)cnc2c(-c3cccc(C(F)(F)F)c3)c(Cl)nn12` [Example 72] gave a chromatographic logP [1] of 5.85 and an EC50 (C. elegans Slo-1a) of 79.4 nM.

In the case of `CC(C)c1c(C(=O)N[C@H]2CCc3ccccc32)cnc2c(-c3ccc(Cl)cc3)c(Cl)nn12` [Example 73], the chromatographic logP [1] is reported as 5.47 and the EC50 (C. elegans Slo-1a) is reported as 158 nM.

`Cc1c(C(=O)N[C@H]2CCc3ccccc32)cnc2c(-c3ccccc3Cl)c(C(F)(F)F)nn12` [Example 81] gave a chromatographic logP [1] of 4.24 and an EC50 (C. elegans Slo-1a) of 398 nM.

`CC(C)c1c(C(=O)N[C@H]2CCc3ccccc32)cnc2c(-c3ccccc3Cl)c(C(F)(F)F)nn12` [Example 88] showed a chromatographic logP [1] of 4.96 and an EC50 (C. elegans Slo-1a) of 79.4 nM.

Work on `CC(C)c1c(C(=O)N[C@H]2CCCc3ccccc32)cnc2c(-c3ccccc3Cl)c(C(F)(F)F)nn12` [Example 89] yielded a chromatographic logP [1] of 5.24 and an EC50 (C. elegans Slo-1a) of 631 nM.

`CC(C)c1c(C(=O)N[C@H]2CCc3ccccc32)cnc2c(-c3cccc(C(F)(F)F)c3)c(C(F)(F)F)nn12` [Example 91] showed a chromatographic logP [1] of 5.51 and an EC50 (C. elegans Slo-1a) of 63.1 nM.

With `Cc1nn2c(C(C)C)c(C(=O)N[C@H]3CCOc4ccc(Cl)cc43)cnc2c1-c1ccccc1F` [Example 93] the “logP (Method L0) [a]” value [1] was 4.67 and the pE50 (C. elegans Slo-1a) was 7.

With `Cc1nn2c(C(C)C)c(C(=O)N[C@H]3CCOc4ccc(Cl)cc43)cnc2c1-c1c(F)cccc1F` [Example 97] the “logP (Method L0) [a]” value [1] was 4.61 and the pE50 (C. elegans Slo-1a) was 7.2.

With `Cc1nn2c(C(C)C)c(C(=O)N[C@H]3CCOc4ccc(Cl)cc43)cnc2c1-c1ccc(F)c(F)c1` [Example 101] the “logP (Method L0) [a]” value [1] was 5.03 and the pE50 (C. elegans Slo-1a) was 6.6.

For `Cc1nn2c(C(C)C)c(C(=O)N[C@H]3CCOc4ccc(Cl)cc43)cnc2c1-c1ccccc1Cl` [Example 104], the “logP (Method L0) [a]” value [1] was 4.87 and the pE50 (C. elegans Slo-1a) was 7.

With `Cc1nn2c(C(C)C)c(C(=O)N[C@H]3CCOc4ccc(Cl)cc43)cnc2c1-c1cccc(Cl)c1` [Example 105] the “logP (Method L0) [a]” value [1] was 5.36 and the pE50 (C. elegans Slo-1a) was 6.8.

With `Cc1ccc2c(c1)[C@@H](NC(=O)c1cnc3c(-c4c(F)cccc4F)c(C)nn3c1C(C)C)CCC2` [Example 108] the “logP (Method L0) [a]” value [1] was 5.09 and the pE50 (C. elegans Slo-1a) was 7.3.

With `Cc1ccc2c(c1)[C@@H](NC(=O)c1cnc3c(-c4ccccc4F)c(C)nn3c1C(C)C)CCC2` [Example 110] the “logP (Method L0) [a]” value [1] was 5.16 and the pE50 (C. elegans Slo-1a) was 6.7.

In the case of `Cc1ccc2c(c1)[C@@H](NC(=O)c1cnc3c(-c4ccccc4Cl)c(C)nn3c1C(C)C)CCC2` [Example 111], the “logP (Method L0) [a]” value [1] is reported as 5.37 and the pE50 (C. elegans Slo-1a) is reported as 7.2.

In the case of `Cc1nn2c(C(C)C)c(C(=O)N[C@H]3CCOc4ccc(Cl)cc43)cnc2c1-c1cc(F)ccc1F` [Example 114], the “logP (Method L0) [a]” value [1] is reported as 4.82 and the pE50 (C. elegans Slo-1a) is reported as 6.9.

In the case of `Cc1nn2c(C(C)C)c(C(=O)N[C@H]3CCCc4ccccc43)cnc2c1-c1ccc(Cl)c(C(=O)NC2CC2)c1` [Example 119], the “logP (Method L0) [a]” value [1] is reported as 4.07 and the pE50 (C. elegans Slo-1a) is reported as 5.5.

With `Cc1nn2c(C(C)C)c(C(=O)N[C@H]3CCc4ccccc43)cnc2c1-c1ccc2c(c1)OC(F)(F)O2` [Example 123] the chromatographic logP [1] was 5.25 and the EC50 (C. elegans Slo-1a) was 10 nM.

Work on `Cc1nn2c(C(C)C)c(C(=O)N[C@H]3CCCc4ccccc43)cnc2c1-c1cc(Cl)cc(C(F)(F)F)c1` [Example 124] yielded a chromatographic logP [1] of 6.36 and an EC50 (C. elegans Slo-1a) of 7.94 nM.

`Cc1nn2c(C(C)C)c(C(=O)N[C@H]3CCCc4ccccc43)cnc2c1-c1ccc(C(C)C)cc1` [Example 126] showed a chromatographic logP [1] of 6.01 and an EC50 (C. elegans Slo-1a) of 200 nM.

For `CC(C)c1c(C(=O)N[C@H]2CCc3ccccc32)cnc2c(-c3cc(Cl)cc(Cl)c3)c(C(F)(F)F)nn12` [Example 167], the chromatographic logP [1] was 6.06 and the EC50 (C. elegans Slo-1a) was 39.8 nM.

In the case of `Cc1nn2c(C(C)C)c(C(=O)N[C@H]3CCOc4ccccc43)cnc2c1-c1ccc(C(F)(F)F)c(F)c1` [Example 187], the “logP (Method L0) [a]” value [1] is reported as 4.85 and the pE50 (C. elegans Slo-1a) is reported as 7.9.

For `Cc1nn2c(C(C)C)c(C(=O)N[C@H]3CCOc4ccccc43)cnc2c1-c1cccc(OC(F)(F)F)c1F` [Example 215], the “log P” value [1] was 5.02 and the pE50 (C. elegans Slo-1a) was 9.1.

For `COc1c(Cl)ccc(-c2c(C)nn3c(C(C)C)c(C(=O)N[C@H]4CCOc5ccccc54)cnc23)c1F` [Example 216], the “log P” value [1] was 4.74 and the pE50 (C. elegans Slo-1a) was 9.1.

In the case of `COc1c(C(=O)N[C@H]2CCOc3ccccc32)cnc2c(-c3c(F)cccc3Cl)c(C)nn12` [Example 514], the “log P” value [1, 2] is reported as 4.93.

With `COc1c(C(=O)N[C@H]2CCOc3ccccc32)cnc2c(-c3cc(Cl)cc(Cl)c3F)c(C)nn12` [Example 515] the “log P” value [1, 2] was 3.17.

In the case of `COc1c(C(=O)N[C@H]2CCOc3ccccc32)cnc2c(-c3ccc(F)c(F)c3)c(C)nn12` [Example 519], the “log P” value [1, 2] is reported as 2.88.

For `COc1c(C(=O)N[C@H]2CCOc3ccccc32)cnc2c(-c3cc(Cl)cc(Cl)c3)c(C)nn12` [Example 521], the “log P” value [1, 2] was 3.56.

With `Cc1nn2c(C3CC3)c(C(=O)N[C@H]3CCOc4ccccc43)cnc2c1-c1ccnc(N2CCOCC2)c1` [Example 526] the “log P” value [1, 2] was 1.53.

With `Cc1nn2c(C(C)C)c(C(=O)N[C@H]3CCc4ccccc43)cnc2c1-c1ccc(C#N)cc1` [Examples 301] the “log P” value [1] was 4.28.

For `Cc1nn2c(C(C)C)c(C(=O)N[C@H]3CCc4ccccc43)cnc2c1-c1cn[nH]c1` [Examples 307], the “log P” value [1] was 2.75.

For `CC(=O)Nc1ccc(-c2c(C)nn3c(C(C)C)c(C(=O)N[C@H]4CCc5ccccc54)cnc23)cc1` [Examples 327], the “log P” value [1] was 3.24.

In the case of `Cc1nn2c(C(C)C)c(C(=O)N[C@H]3CCc4ccccc43)cnc2c1-c1ccc(NS(C)(=O)=O)cc1` [Examples 330], the “log P” value [1] is reported as 3.38.

With `Cc1nn2c(C(C)C)c(C(=O)N[C@H]3CCc4ccccc43)cnc2c1-c1ccc(OCC(F)(F)F)cc1` [Examples 336] the “log P” value [1] was 4.91.

In the case of `COCc1cccc(-c2c(C)nn3c(C(F)(F)F)c(C(=O)N[C@H]4CCc5ccccc54)cnc23)c1` [Examples 371], the “log P” value [1] is reported as 4.32.

For `Cc1nn2c(C(F)(F)F)c(C(=O)N[C@H]3CCc4ccccc43)cnc2c1-c1cccc(Cl)c1` [Examples 382], the “log P” value [1] was 4.97.

For `Cc1nn2c(C(F)(F)F)c(C(=O)N[C@H]3CCc4ccccc43)cnc2c1-c1cccc(OC(F)(F)F)c1` [Examples 383], the “log P” value [1] was 5.21.

In the case of `Cc1nn2c(C(F)(F)F)c(C(=O)N[C@H]3CCc4ccccc43)cnc2c1-c1cccc(C(F)(F)F)c1` [Examples 384], the “log P” value [1] is reported as 5.04.

In the case of `Cc1nn2c(C(F)(F)F)c(C(=O)N[C@H]3CCc4ccccc43)cnc2c1-c1cccc(N(C)C)c1` [Examples 385], the “log P” value [1] is reported as 4.1.

In the case of `COc1cccc(-c2c(C)nn3c(C(F)(F)F)c(C(=O)N[C@H]4CCc5ccccc54)cnc23)c1` [Examples 386], the “log P” value [1] is reported as 4.34.

With `Cc1nn2c(C(F)(F)F)c(C(=O)N[C@H]3CCc4ccccc43)cnc2c1-c1cccc(F)c1` [Examples 387] the “log P” value [1] was 4.53.

With `Cc1nn2c(C(C)C)c(C(=O)N[C@H]3CCc4ccccc43)cnc2c1-c1cnn(CCN2CCOCC2)c1` [Examples 397] the “log P” value [1, 2] was 1.81.

In the case of `Cc1nn2c(C(C)C)c(C(=O)N[C@H]3CCc4ccccc43)cnc2c1-c1cnn(CCN(C)C)c1` [Examples 404], the “log P” value [1, 2] is reported as 1.75.

In the case of `CC(C)c1c(C(=O)N[C@H]2CCc3ccccc32)cnc2c(-c3cccc(OC(F)(F)F)c3)c(C3CC3)nn12` [Examples 406], the “log P” value [1, 2] is reported as 6.11.

In the case of `COCc1cccc(-c2c(C3CC3)nn3c(C(C)C)c(C(=O)N[C@H]4CCc5ccccc54)cnc23)c1` [Examples 409], the “log P” value [1, 2] is reported as 5.13.
